Results reported in US20090047221A1 (NIPRI LIMITED, priority 2004, published 2009).
Read-outs that look alike come from different tables or passages of the source.

What was measured:
Format in all cases: cell-based
[1] = tested on: SkMel28; test: MTT assay (anti-proliferative activity); conditions: read-out: IC 50 SkMel28
Protocol: (§1) The MTT assay was used initially to determine the anti-proliferative activity of the test compounds. In the MTT assay a yellow thiazolyl blue tetrazolium bromide salt (MTT) is reduced, in metabolically active cells, to form insoluble purple formazan crystals which are solubilised by the addition of dimethyl sulphoxide (DMSO).
(§2) Wells containing medium only were used as blanks. Following the attachment period, cells were treated with appropriate drug concentrations (20 μl added per well). 40 mg/ml stock drug solutions, in DMSO, were stored at −20° C. and on the day of drug treatment working solutions of 4 mg/ml were prepared in medium which was further diluted to achieve final drug dilution volumes of 20 μl. Initial screening was determined over a concentration range of 1-200 μg/ml. […] Cells were exposed to drug for 96 h continual exposure (37° C., 5% CO2). Following the 96 h incubation, 50 μl MTT solution (1 g MTT/500 ml PBS) was added per well and the plates were further incubated for 4 h (37° C., 5% CO2). After incubation the MTT and medium was removed from the wells and 100 μl DMSO added per well. Plates were agitated on an orbital mixer platform (Stuart Scientific) for 10 minutes. Absorbance was measured at 570 nm on a Biotrak II (Amersham Bioscience) plate reader. IC50 values were calculated comparing control and drug treated cells.

[2] = tested on: MCF-7; test: MTT assay (anti-proliferative activity); conditions: read-out: IC 50 MCF-7
Protocol: as §1, §2

[3] = tested on: MalMe3M; test: MTT assay (anti-proliferative activity); conditions: 96 h continual exposure, read-out: IC 50 MalMe3M
Protocol: as §1, §2

[4] = tested on: MDA-MB-468; test: MTT assay (anti-proliferative activity); conditions: read-out: IC 50 MDA-MB-468
Protocol: as §1, §2

[5] = tested on: breast cancer (MDA-MB-468 and MCF-7 cell lines) and melanoma cell lines (MalMe3, SkMe128); test: Cell cycle analysis by flow cytometry (propidium iodide); apoptosis as cells in sub G0/G1 (pre G0) peak; conditions: following treatment with IC70 concentration of compound
Protocol: Assessment of cell cycle analysis was performed using propidium iodide staining of cells and subsequent analysis on a Beckton Dickinson flow cytometer. […] The following day the medium was removed and replaced with 5 ml medium per flask containing the appropriate drug concentrations to be tested. 40 mg/ml stock drug solutions in DMSO were stores at −20° C. and on the day off drug treatment working solutions of 4 mg/ml were prepared in medium from which the final drug dilutions were prepared. Cells were maintained in an incubator (37° C., 5% CO2) for up to 96 h post treatment. After 24, 48, 72 or 96 h time points the medium from each flask was collected, stored on ice, and the remaining cells in the flasks were trypsinised by aiding 1 ml trypsin-EDTA solution to each flask. Cells were replaced into the incubator for 10 min to allow them to detach from the plastic plate. The cells in each flask were collected by adding the appropriate medium removed from each flask back to the corresponding flask and then placing medium containing both the attached and floating cells into a 15 ml tube. Cells were centrifuged at 4° C. for 5 min at 1500 rpm and the supernatant removed from each tube. The remaining cells were washed twice in ice cold PBS and then fixed in ice cold methanol overnight at −20° C. On the day of analysis of cells each tube was centrifuged at 4° C. for 5 min at 1500 rpm and the methanol removed and the cells washed twice in ice cold PBS. 20 μl propidium iodide solution (1 mg/ml) and 20 μl RNase A (10 mg/ml solution) were added to 1 ml PBS per tube and the cells were incubated for 30 min at 37° C. Cells were analysed on the flow cytometer and cell cycle changes were assessed.

[6] = Homo sapiens, SK-MEL-28, 96 h continual exposure
[7] = Homo sapiens, MCF7, 96 h continual exposure
[8] = Homo sapiens, MDA-MB-468, 96 h continual exposure

Row | Compound | IC50 ([1]; 96 h continual exposure) | IC50 ([2]; 96 h continual exposure) | IC50 [3] | IC50 ([4]; 96 h continual exposure) | % Cells in Pre G0 phase of Cell Cycle [5] | IC50 [1, 6] | IC50 [2, 7] | IC50 ([3]; Homo sapiens, Malme-3M) | IC50 [4, 8]
1 | CC1Cc2ccc(C(=O)NC(Cc3ccccc3)C(=O)OC(C)(C)C)c(O)c2C(=O)O1 (mixture of isomers) [ALM-53, L-Phenyl Alanine Tert-Butyl Ester Amide] | 70.5 µM | 9.4 µM | 11.7 µM | 2.3 µM | 8.9% | – | – | – | –
2 | CC1Cc2ccc(F)c(O)c2C(=O)O1 (racemic) [ALM-22, Racemic Ortho-Fluoromellein] | – | – | – | – | 16.5% | 96.8 µM | 173 µM | 96.8 µM | 61.2 µM
3 | CC1Cc2ccc(I)c(O)c2C(=O)O1 (racemic) [ALM-25, Racemic Ortho-Iodomellein] | – | – | – | – | 37.0% | 78.9 µM | 72.3 µM | 75.6 µM | 72.3 µM
4 | CC1Cc2ccc(C(=O)Nc3ccccc3)c(O)c2C(=O)O1 (racemic) [ALM-45, Aniline Amide] | 172 µM | 26.9 µM | 33.6 µM | 10.1 µM | 6.4% | – | – | – | –
5 | CC1Cc2ccc(C(=O)n3ccnc3)c(O)c2C(=O)O1 (racemic) [ALM-46, CDI derivative] | > 734 µM | > 734 µM | > 734 µM | 73.4 µM | – | – | – | – | –
6 | CC1Cc2ccc(C(=O)N3CCCC3)c(O)c2C(=O)O1 (racemic) [ALM-47, Pyrrolidine Amide] | > 726 µM | > 726 µM | > 726 µM | 490 µM | – | – | – | – | –
7 | CNC(=O)c1ccc2c(c1O)C(=O)OC(C)C2 (racemic) [ALM-48, Methyl Amide] | 502 µM | 268 µM | 191 µM | 289 µM | – | – | – | – | –
8 | CCCCCCN(C)C(=O)c1ccc2c(c1O)C(=O)OC(C)C2 (racemic) [ALM-50, N-Methyl-N-Hexyl Amide] | 141 µM | 90.8 µM | 110 µM | 59.5 µM | – | – | – | – | –
9 | CCCCCCCCCCCCNC(=O)c1ccc2c(c1O)C(=O)OC(C)C2 (racemic) [ALM-51, Dodecyl Amide] | 33.4 µM | 12.8 µM | 25.7 µM | 10.3 µM | 20.6% | – | – | – | –
10 | CCCCCCCC/C=C\CCCCCCCCNC(=O)c1ccc2c(c1O)C(=O)OC(C)C2 (racemic) [ALM-52, Oleyl Amide] | 244 µM | 21.2 µM | 52.9 µM | 12.7 µM | 19.8% | – | – | – | –
11 | C[C@H]1Cc2cccc(O)c2C(=O)O1 [ALM-10, (3S)-mellein] | – | – | – | – | – | 961 µM | 596 µM | 360 µM | 317 µM
12 | C[C@@H]1Cc2cccc(O)c2C(=O)O1 [ALM-11, (3R)-mellein] | – | – | – | – | – | 961 µM | 961 µM | > 960 µM | 428 µM
13 | COc1cccc2c1C(=O)O[C@@H](C)C2 [ALM-13, (3S)-methoxy mellein] | – | – | – | – | – | > 1040 µM | > 1040 µM | 822 µM | 1040 µM
14 | COc1cccc2c1C(=O)O[C@H](C)C2 [ALM-14, (3R)-methoxy mellein] | – | – | – | – | – | > 1040 µM | 1040 µM | > 1040 µM | > 1040 µM
15 | C[C@@H]1Cc2ccc(C(=O)N[C@@H](Cc3ccccc3)C(=O)O)c(O)c2C(=O)O1 [ALM-32, ochratoxin B] | 21.6 µM | 18.9 µM | 13.5 µM | 18.9 µM | – | – | – | – | –
16 | COC(=O)c1ccc2c(c1O)C(=O)OCC2 [ALM-68, 8-hydroxy-1-oxo-isochroman-7-carboxylic acid methyl ester] | – | – | – | – | – | 562 µM | 338 µM | 518 µM | 270 µM
17 | CC(C)(C)OC(=O)[C@H](Cc1ccccc1)NC(=O)c1ccc2c(c1O)C(=O)OCC2 [ALM-69, L-Phenyl Alanine Tert-Butyl Ester Amide of Compound ALM-68] | 72.9 µM | 18.2 µM | 21.9 µM | 14.6 µM | 14.4% | – | – | – | –
18 | O=C(N[C@@H](Cc1ccccc1)C(=O)O)c1ccc2c(c1O)C(=O)OCC2 [ALM-70, L-Phenyl Alanine Amide of Compound ALM-68] | 42.2 µM | 8.4 µM | 18.3 µM | 1.4 µM | 32.7% | – | – | – | –
19 | COC(=O)c1ccc2c(c1O)C(=O)OC(C)(C)C2 [ALM-71, 8-hydroxy-3,3-dimethyl-1-oxo-isochroman-7-carboxylic acid methyl ester] | – | – | – | – | – | > 799 µM | 400 µM | > 799 µM | 336 µM
20 | CC1(C)Cc2ccc(C(=O)O)c(O)c2C(=O)O1 [ALM-72, 8-hydroxy-3,3-dimethyl-1-oxo-isochroman-7-carboxylic acid] | – | – | – | – | – | > 846 µM | > 846 µM | > 846 µM | > 846 µM
21 | CC(C)(C)OC(=O)[C@H](Cc1ccccc1)NC(=O)c1ccc2c(c1O)C(=O)OC(C)(C)C2 [ALM-73, L-Phenyl Alanine Tert-Butyl Ester Amide of Compound ALM-71] | 13.7 µM | 14.8 µM | 9.1 µM | 9.1 µM | 25.3% | – | – | – | –
22 | CC1Cc2ccc3c(c2C(=O)O1)OC(C)(C)OC3=O (stereo not drawn) [ALM-75, Acetonide Compound] | – | – | – | – | – | > 762 µM | > 762 µM | > 762 µM | > 762 µM
23 | Racemic Kigelin Oleyl Ester [ALM-2] | > 397 µM | > 397 µM | > 397 µM | > 397 µM | – | – | – | – | –
24 | Racemic Mellein Oleyl Ester [ALM-17] | > 451 µM | > 451 µM | > 451 µM | > 451 µM | – | – | – | – | –
